Experimental data as given in patent publication US20150038435A1, “N-TERMINALLY MODIFIED OLIGOPEPTIDES AND USES THEREOF” (Novo Nordisk A/S, priority 2012, published 2015).
*: point of attachment. C14 diacid = O=C(O)CCCCCCCCCCCCC(=O)*; Lauroyl = CCCCCCCCCCCC(=O)*

Legend:
[1] = system: Trypsin; test: Inhibition of enzymatic degradation of a model GLP-1 (FRET substrate) by trypsin; type: biochemical
In short: (§1)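 MCA/DNP-labelled model GLP-1 FRET substrate (10 μl of 100 μM stock) in Dulbecco's PBS at 37° C with varying acylated peptide; fluorescence (ex 320/em 405 nm) read every minute for ≥30 min. Initial slopes from linear regression, duplicates averaged; EC50 by sigmoidal logistic fit of slope vs concentration.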

[2] = system: Chymotrypsin; test: Inhibition of enzymatic degradation of a model GLP-1 (FRET substrate) by chymotrypsin; type: biochemical
In short: as §1

[3] = Hydrophobicity: retention time during reverse phase HPLC; type: physicochemical; conditions: Acquity CSH C18; pH 7.2 buffer/CH3CN gradient; 40° C.
Text: The retention time (RT) during reverse phase HPLC was taken as a measure of hydrophobicity of an N-terminally modified peptide or oligopeptide of the invention, where the connection is: The longer the RT, the more hydrophobic N-terminally modified peptide or oligopeptide. The following running conditions were applied during HPLC analysis:
Buffer B: 70% (v/v) aq. CH3CN

[4] = compound 0.1 mM, buffer containing 8% DMSO

Substance	Slope of the initial increase in fluorescence obtained during incubation with 0.001 mg/ml Trypsin [1, 4]	Slope of the initial increase in fluorescence obtained during incubation with 0.001 mg/ml Chymotrypsin [2, 4]	RT (retention time during reverse phase HPLC as a measure of hydrophobicity) [3] [min]	Slope of the initial increase in fluorescence obtained during incubation with 0.001 mg/ml Trypsin ([1]; compound 1 mM)	Slope of the initial increase in fluorescence obtained during incubation with 0.001 mg/ml Chymotrypsin ([2]; compound 1 mM)	EC50 ([1]; read-out: EC50 Trypsin (0.001 mg/ml), 0.001 mg/ml trypsin, 37° C.) [µM]	EC50 ([2]; read-out: EC50 Chymotrypsin (0.001 mg/ml), 0.001 mg/ml chymotrypsin, 37° C., ± standard error if at least 3 measurements) [µM]
N-dodecanoyl-Val-Ala-Pro-Tyr-OH (Lauroyl-VAPY-OH; SMILES CCCCCCCCCCCC(=O)N[C@H](C(=O)N[C@@H](C)C(=O)N1CCC[C@H]1C(=O)N[C@@H](Cc1ccc(O)cc1)C(=O)O)C(C)C) [Example 55]	1.88	0.42	7.01	–	–	–	–
N-dodecanoyl-His-Pro-Tyr-OH [Example 119]	2.13	0.70	5.12	–	–	–	–
N-dodecanoyl-Trp-Pro-Tyr-OH [Example 109]	0.73	0.05	8.24	–	–	–	–
N-dodecanoyl-γGlu-OEG-OEG-DArg-OH [Example 133]	–	–	3.62	0.09	0.27	–	–
N-dodecanoyl-Ala-Ala-Pro-Leu-OH (Lauroyl-AAPL-OH; SMILES CCCCCCCCCCCC(=O)N[C@@H](C)C(=O)N[C@@H](C)C(=O)N1CCC[C@H]1C(=O)N[C@@H](CC(C)C)C(=O)O) [Example 11]	–	–	1.22	3.06	0.77	–	–
N-dodecanoyl-Ala-Ala-Lys-Tyr-OH (Lauroyl-AAKY-OH; SMILES CCCCCCCCCCCC(=O)N[C@@H](C)C(=O)N[C@@H](C)C(=O)N[C@@H](CCCCN)C(=O)N[C@@H](Cc1ccc(O)cc1)C(=O)O) [Example 67]	1.89	0.94	4.7	–	–	–	–
N-dodecanoyl-Pro-Pro-Tyr-OH [Example 106]	1.75	1.72	6.01	–	–	–	–
N-dodecanoyl-Ala-Ala-Met-Tyr-OH (Lauroyl-AAMY-OH; SMILES CCCCCCCCCCCC(=O)N[C@@H](C)C(=O)N[C@@H](C)C(=O)N[C@@H](CCSC)C(=O)N[C@@H](Cc1ccc(O)cc1)C(=O)O) [Example 68]	1.73	0.60	6.68	–	–	–	–
N-dodecanoyl-Ala-Pro-Pro-Tyr-OH (Lauroyl-APPY-OH; SMILES CCCCCCCCCCCC(=O)N[C@@H](C)C(=O)N1CCC[C@H]1C(=O)N1CCC[C@H]1C(=O)N[C@@H](Cc1ccc(O)cc1)C(=O)O) [Example 85]	1.92	1.81	6.1	–	–	–	–
N-dodecanoyl-Val-Pro-Tyr-OH [Example 111]	1.93	0.31	7	–	–	–	–
N-dodecanoyl-Ala-Asp-Pro-Tyr-OH (Lauroyl-ADPY-OH; SMILES CCCCCCCCCCCC(=O)N[C@@H](C)C(=O)N[C@@H](CC(=O)O)C(=O)N1CCC[C@H]1C(=O)N[C@@H](Cc1ccc(O)cc1)C(=O)O) [Example 75]	1.81	1.77	4.2	–	–	–	–
N-dodecanoyl-Ile-Ala-Pro-Tyr-OH (Lauroyl-IAPY-OH; SMILES CCCCCCCCCCCC(=O)N[C@H](C(=O)N[C@@H](C)C(=O)N1CCC[C@H]1C(=O)N[C@@H](Cc1ccc(O)cc1)C(=O)O)[C@@H](C)CC) [Example 41]	1.96	0.84	7.76	–	–	–	–
N-dodecanoyl-γGlu-Ala-Ala-Pro-Tyr-OH [Example 97]	1.31	0.55	3.79	–	–	–	–
N-dodecanoyl-Ala-Ala-Pro-Trp-OH (Lauroyl-AAPW-OH; SMILES CCCCCCCCCCCC(=O)N[C@@H](C)C(=O)N[C@@H](C)C(=O)N1CCC[C@H]1C(=O)N[C@@H](Cc1c[nH]c2ccccc12)C(=O)O) [Example 26]	–	–	7.03	–	–	413	29 ± 2
N-dodecanoyl-Leu-Ala-Pro-Tyr-OH (Lauroyl-LAPY-OH; SMILES CCCCCCCCCCCC(=O)N[C@@H](CC(C)C)C(=O)N[C@@H](C)C(=O)N1CCC[C@H]1C(=O)N[C@@H](Cc1ccc(O)cc1)C(=O)O) [Example 43]	1.36	0.21	7.86	–	–	–	–
N-dodecanoyl-Arg-Ala-Pro-Tyr-OH (Lauroyl-RAPY-OH; SMILES CCCCCCCCCCCC(=O)N[C@@H](CCCNC(=N)N)C(=O)N[C@@H](C)C(=O)N1CCC[C@H]1C(=O)N[C@@H](Cc1ccc(O)cc1)C(=O)O) [Example 92]	1.44	0.23	4.84	–	–	–	–
N-tetradecanoyl-βAla-Ala-Pro-Phe-OH [Example 9]	–	–	8.73	0.21	0.01	–	–
N-dodecanoyl-Ala-Ala-Pro-Tyr-OH [Example 69] (Lauroyl-AAPY-OH; SMILES CCCCCCCCCCCC(=O)N[C@@H](C)C(=O)N[C@@H](C)C(=O)N1CCC[C@H]1C(=O)N[C@@H](Cc1ccc(O)cc1)C(=O)O)	1.83	0.43	5.79	–	–	–	–
N-tetradecandioyl-Ala-Ala-Pro-Phe-OH ({C14 diacid}-AAPF-OH) [Example 16]	–	–	3.11	3.23	0.14	–	–
N-dodecanoyl-His-Ala-Pro-Tyr-OH (Lauroyl-HAPY-OH; SMILES CCCCCCCCCCCC(=O)N[C@@H](Cc1c[nH]cn1)C(=O)N[C@@H](C)C(=O)N1CCC[C@H]1C(=O)N[C@@H](Cc1ccc(O)cc1)C(=O)O) [Example 39]	1.84	0.27	5.08	–	–	–	–
